Data on 25 molecules can be found in ChEMBL document CHEMBL1157884, “Synthesis and SAR of heterocyclic carboxylic acid isosteres based on 2-biarylethylimidazole as bombesin receptor subtype-3 (BRS-3) agonists for the treatment of obesity” (Bioorg Med Chem Lett, 2010).

The target in data set [1] is T1, Bombesin receptor subtype-3 (Mus musculus) (UniProt O54798).
T1 sequence (whole entry): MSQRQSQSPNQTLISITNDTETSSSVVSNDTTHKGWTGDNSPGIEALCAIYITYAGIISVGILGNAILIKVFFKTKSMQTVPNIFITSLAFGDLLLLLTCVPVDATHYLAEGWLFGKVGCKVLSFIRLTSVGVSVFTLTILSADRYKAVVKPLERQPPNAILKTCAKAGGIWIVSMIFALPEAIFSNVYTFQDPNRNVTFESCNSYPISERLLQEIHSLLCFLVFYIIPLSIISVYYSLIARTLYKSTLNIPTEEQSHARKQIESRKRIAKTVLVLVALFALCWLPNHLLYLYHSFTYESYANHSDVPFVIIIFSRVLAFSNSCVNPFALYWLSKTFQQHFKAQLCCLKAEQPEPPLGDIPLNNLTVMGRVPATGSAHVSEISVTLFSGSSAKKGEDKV
Description: Agonist activity at mouse BRS3 relative to [D-Tyr6,b-Ala11,Phe13,Nle14]-Bombesin. It is filed as functional.

For data set [2], the target named is T2, Bombesin receptor subtype-3 (Mus musculus, UniProt O54798).
T2 sequence (O54798 whole entry): T1 sequence (whole entry)
Description: Agonist activity at mouse BRS3. It is filed as functional.

The target of data set [3] is T3, Bombesin receptor subtype-3 (Homo sapiens, UniProt P32247).
T3 sequence (P32247 whole entry): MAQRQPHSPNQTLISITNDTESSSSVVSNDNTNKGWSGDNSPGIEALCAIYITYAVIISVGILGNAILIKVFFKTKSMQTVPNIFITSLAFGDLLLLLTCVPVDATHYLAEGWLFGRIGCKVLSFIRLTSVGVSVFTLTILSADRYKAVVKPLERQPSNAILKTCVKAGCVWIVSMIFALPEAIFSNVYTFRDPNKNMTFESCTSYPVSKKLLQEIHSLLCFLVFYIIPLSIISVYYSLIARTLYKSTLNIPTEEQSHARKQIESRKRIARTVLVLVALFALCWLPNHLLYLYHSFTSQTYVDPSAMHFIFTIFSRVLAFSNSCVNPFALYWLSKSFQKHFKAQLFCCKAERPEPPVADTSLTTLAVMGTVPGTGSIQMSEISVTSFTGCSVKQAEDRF
Description: Agonist activity at human BRS3. Type of data set: functional.

Data set [4] addresses T3, Bombesin receptor subtype-3. Description: Binding affinity to human BRS3.
Data set [5] deals with T4, Bombesin receptor subtype-3 (Homo sapiens) (UniProt P32247).
T4 sequence (whole entry): T3 sequence (P32247 whole entry)
Nature of the data set: Agonist activity at human BRS3 relative to [D-Tyr6,b-Ala11,Phe13,Nle14]-Bombesin. It is filed as functional.

Data set [6] can be described thus: Oral bioavailability in rat. Type of data set: ADME, organism-based. The settings on record: in vivo.
Data set [7] in a line: Ratio of drug level in brain to plasma in rat at 1 mg/kg, iv after 1 hr. Type of data set: ADME, organism-based. Further details: dose 1 mg/kg, route intravenous.
Data set [8] in a line: Drug level in rat brain at 1 mg/kg, iv after 1 hr. Type of data set: ADME, organism-based. Further details: dose 1 mg/kg, route intravenous. As to conditions: read-out: Drug uptake.
The nature of data set [9]: Total plasma concentration in rat at 1 mg/kg, iv after 1 hr. It is filed as ADME, organism-based. On the set-up: dose 1 mg/kg, route intravenous.
Data set [10] can be described thus: Total plasma concentration in rat at 2 mg/kg, iv after 1 hr. Type of data set: ADME, organism-based. Further details: dose 2 mg/kg, route intravenous.
The nature of data set [11]: Drug level in rat brain at 2 mg/kg, iv after 1 hr. Type of data set: ADME, organism-based. Further details: dose 2 mg/kg, route intravenous. The settings on record: read-out: Drug uptake.
Data set [12] in a line: Ratio of drug level in brain to plasma in rat at 2 mg/kg, iv after 1 hr. Type of data set: ADME, organism-based. Further details: dose 2 mg/kg, route intravenous.

The structures appear in SMILES notation.

As usually defined, the EC50 is the concentration at which the effect is half-maximal. Read a low EC50 as a more potent agent. Broadly, the IC50 is the midpoint of a concentration-inhibition curve. A higher IC50 goes with weaker potency in that assay. Usually bioavailability stands for the share of a dose that reaches the circulation, judged against a reference dose that is usually intravenous. A higher bioavailability goes with much systemic uptake. With `CCC(C)(C)Cc1c[nH]c(CCc2ccc(N3CCCC[C@@H]3c3nnn[nH]3)cc2)n1`, the Activity in [1] is 119%; in data set [5], 100%. In addition, the EC50 in data set [2] came to 16 nM; in [3], 15 nM. Besides, the IC50 in data set [4] was determined as 6.2 nM. Also, in data set [6], the bioavailability is 4.9%.
For `c1ccc(-c2nnn[nH]2)c(-c2ccc(CCc3nc(CC4CCCC4)c[nH]3)cc2)c1`, the values for the Activity in data set [1] and in data set [5] were 85% and 112%, respectively.
Usually Kp stands for the ratio of the level in a tissue or fluid to that in plasma or blood. Consider `CCC(C)(C)Cc1c[nH]c(CCc2ccc(-c3ccccc3OCc3nc(N)n[nH]3)cc2)n1`, for which the Kp at 1 h in data set [7] came out at 0.016. Also, the Activity was found to be 115% in [1] and 98% in [5]. For the same molecule, the EC50 stood at 4.6 nM in data set [2] and 78 nM in data set [3]. For the same molecule, the results for the concentration at 1 h in data set [8] and in [9] were 10 nM and 860 nM, respectively. This molecule also displayed an IC50 in data set [4] of 27 nM.
As for `CCC(C)(C)Cc1cnc(CCc2ccc(N3CCCC[C@@H]3c3nnc[nH]3)cc2)[nH]1`, the EC50 in [2] is 13 nM; in [3], 42 nM. Also, in data set [4], the IC50 stood at 26 nM. Besides, the bioavailability in data set [6] was found to be 4.8%.
In [3], `CCC(C)(C)Cc1c[nH]c(CCc2ccc(-c3ccccc3OCc3nnc[nH]3)cc2)n1` registered an EC50 of 172 nM. The molecule further had an IC50 in data set [4] of 22 nM.
As to `CCC(C)(C)Cc1c[nH]c(CCc2ccc(-c3ccccc3OCc3nc(=O)[nH][nH]3)cc2)n1`, the Activity in data set [5] was 107%.
As for `CCC(C)(C)Cc1c[nH]c(CCc2ccc3c(c2)CN(C)C(=O)c2ccccc2-3)n1`, the Activity in [1] was 119%; in [5], 96%.
Turning to `CCC(C)(C)Cc1cnc(CCc2ccc3c(c2)CNC(=O)c2ccccc2-3)[nH]1`, in [7], the Kp at 1 h worked out at 0.068. For the same molecule, the EC50 in data set [2] came to 11 nM; in data set [3], 29 nM. For the same molecule, the concentration at 1 h in data set [8] is 20 nM; in data set [9], 310 nM. Also, the IC50 in [4] was found to be 10 nM.
With `CCC(C)(C)Cc1c[nH]c(CCc2ccc(-c3ccccc3OCc3nnn[nH]3)cc2)n1`, the Activity in data set [1] was 109%; in [5] it was 111%. Besides, the EC50 is 2.9 nM in data set [2] and 30 nM in [3]. Moreover, the concentration at 1 h was 1250 nM in data set [10] and 10 nM in [11]. Moreover, the Kp at 1 h in data set [12] stood at 0.01.
Take `CCC(C)(C)Cc1c[nH]c(CCc2ccc(N3CCCC[C@@H]3C(=O)O)cc2)n1`: the Kp at 1 h in data set [7] was 0.04. Moreover, the Activity in [1] worked out at 111%; in data set [5] it was 100%. Also, the values for the EC50 in data set [2] and in data set [3] were 12 nM and 24 nM, respectively. Also, the concentration at 1 h in [8] came to 10 nM; in data set [9] it was 210 nM. The same molecule returned an IC50 in data set [4] of 5.3 nM.
For `CCC(C)(C)Cc1c[nH]c(CCc2ccc(N3CCCC[C@@H]3c3ncn[nH]3)cc2)n1`, the Activity in data set [1] was 117%; in [5], 96%.
For `c1ccc(-c2nnn[nH]2)c(-c2ccc(CCc3ncc(CC4CCCC4)[nH]3)cc2)c1`, the EC50 was 16 nM in data set [2] and 56 nM in data set [3]. In addition, the IC50 in [4] stood at 15 nM.
The corresponding values for `CCC(C)(C)Cc1cnc(CCc2ccc3c(c2)CN(C)C(=O)c2ccccc2-3)[nH]1` are 27 nM, 56 nM and 20 nM.
In the case of `CCC(C)(C)Cc1c[nH]c(CCc2ccc(-c3ccccc3OCC(=O)O)cc2)n1`, the Activity in data set [5] is 97%.
On the same count and under the same terms, with `CCC(C)(C)Cc1c[nH]c(CCc2ccc(-c3ccccc3OCc3ncn[nH]3)cc2)n1` the figure was 113%; with `CCC(C)(C)Cc1c[nH]c(CCc2ccc(-c3ccccc3OCc3cnn[nH]3)cc2)n1`, 97%.
For `CCC(C)(C)Cc1c[nH]c(CCc2ccc(-c3ccccc3OCc3nc(=S)[nH][nH]3)cc2)n1`, the Kp at 1 h in data set [7] was 0.006. In addition, the Activity was determined as 120% in data set [1] and 114% in data set [5]. For the same molecule, the EC50 in [2] was determined as 5.8 nM; in [3], 41 nM. Besides, the concentration at 1 h was 30 nM in data set [8] and 4960 nM in data set [9]. In data set [4], this molecule returned an IC50 of 6.1 nM.
On to `CCC(C)(C)Cc1c[nH]c(CCc2ccc(N3CCCc4cn[nH]c43)cc2)n1`, for which the values for the Activity in [1] and in data set [5] were 120% and 101%, respectively. For the same molecule, the EC50 in [2] was 13 nM; in data set [3], 42 nM. The molecule further gave a bioavailability in data set [6] of 29%.
In data set [3], `CCC(C)(C)Cc1cnc(CCc2ccc(-c3ccccc3OCc3cnn[nH]3)cc2)[nH]1` came in with an EC50 of 399 nM. In data set [4], the IC50 stood at 83 nM.
As for `CCC(C)(C)Cc1c[nH]c(CCc2ccc3c(c2)CNC(=O)c2ccccc2-3)n1`, the Activity in [1] stood at 118%; in data set [5] it was 98%.
Regarding `CCC(C)(C)Cc1c[nH]c(CCc2ccc(-c3ccccc3O)cc2)n1`, the Activity is 113% in data set [1] and 97% in data set [5]. In addition, the EC50 in [2] turned out to be 34 nM; in data set [3], 133 nM. In addition, the IC50 in data set [4] amounted to 31 nM.
Consider `CCC(C)(C)Cc1cnc(CCc2ccc(-c3ccccc3OCC(=O)O)cc2)[nH]1`, for which it took 54 nM to reach a half-maximal effect in data set [3] (EC50). For the same molecule, in [4], the IC50 is 103 nM.
As for `CCC(C)(C)Cc1c[nH]c(CCc2ccc(-c3ccccc3OCc3nc(C(F)(F)F)n[nH]3)cc2)n1`, the figures for the Activity in data set [1] and in data set [5] were 122% and 89%, respectively. The EC50 in data set [2] is 12 nM; in data set [3], 129 nM. In [4], this molecule gave an IC50 of 127 nM.
In [3], `O=C1NC(=O)C(c2ccccc2-c2ccc(CCC3N=CC(CC4CCCC4)=N3)cc2)S1` (stereo unspecified) gave an EC50 of 1770 nM. In addition, in data set [4], the IC50 came out at 287 nM. Moreover, in [5], the Activity is 94%.
`CCC(C)(C)Cc1cnc(CCc2ccc(-c3ccccc3OCc3n[nH]c(=O)[nH]3)cc2)[nH]1`: in [3], the response was half-maximal at 336 nM (EC50). The molecule further gave an IC50 in data set [4] of 31 nM.
